Converted amounts (≈) assume the structure as drawn.
Legend:
Format in all cases: functional
Trichophyton rubrum = assay: Antifungal activity against Trichophyton rubrum assessed as turbidity after 24 to 72 hrs by serial dilution method
Candida albicans = assay: Antifungal activity against Candida albicans assessed as turbidity after 24 hrs by serial dilution method
Kluyveromyces marxianus [1] = assay: Antifungal activity against Candida kefyr assessed as turbidity after 24 hrs by serial dilution method
Candida parapsilosis [2] = assay: Antifungal activity against Candida parapsilosis assessed as turbidity after 24 hrs by serial dilution method; details: Lodderomyces parapsilosis
Cryptococcus neoformans = assay: Antifungal activity against Cryptococcus neoformans assessed as turbidity after 72 hrs by serial dilution method
Candida tropicalis [3] = assay: Antifungal activity against Candida tropicalis assessed as turbidity after 24 hrs by serial dilution method
Aspergillus fumigatus = assay: Antifungal activity against Aspergillus fumigatus assessed as turbidity after 7 days by serial dilution method; details: 168 h
Candida parapsilosis [4] = assay: Ratio of fluconazole MIC80 to compound MIC80 for Candida parapsilosis
Candida tropicalis [5] = assay: Ratio of fluconazole MIC80 to compound MIC80 for Candida tropicalis
Kluyveromyces marxianus [6] = assay: Ratio of fluconazole MIC80 to compound MIC80 for Candida kefyr

CN(CC(O)(Cn1cncn1)c1ccc(F)cc1F)C1CCN(Cc2ccccc2)CC1 (stereo not drawn)
MIC80 (Trichophyton rubrum): 2.26 µM (≈ 0.998 µg/mL)
MIC80 (Candida albicans): 0.57 µM (≈ 0.252 µg/mL)
MIC80 (Kluyveromyces marxianus [1]): 2.26 µM (≈ 0.998 µg/mL)
MIC80 (Candida parapsilosis [2]): 0.57 µM (≈ 0.252 µg/mL)
MIC80 (Cryptococcus neoformans): 2.26 µM (≈ 0.998 µg/mL)
MIC80 (Candida tropicalis [3]): 2.26 µM (≈ 0.998 µg/mL)
MIC80 (Aspergillus fumigatus): 145 µM (≈ 64 µg/mL)

OC(CN1CCC(OCc2ccccc2)CC1)(Cn1cncn1)c1ccc(F)cc1F (stereo not drawn)
Ratio (Candida parapsilosis [4]): 82
MIC80 (Trichophyton rubrum): 0.15 µM (≈ 0.0643 µg/mL)
Ratio (Candida tropicalis [5]): 82
MIC80 (Candida albicans): 0.01 µM (≈ 0.00428 µg/mL)
Ratio (Kluyveromyces marxianus [6]): 82
MIC80 (Kluyveromyces marxianus [1]): 0.15 µM (≈ 0.0643 µg/mL)
MIC80 (Candida parapsilosis [2]): 0.04 µM (≈ 0.0171 µg/mL)
MIC80 (Cryptococcus neoformans): 0.04 µM (≈ 0.0171 µg/mL)
MIC80 (Candida tropicalis [3]): 0.04 µM (≈ 0.0171 µg/mL)
MIC80 (Aspergillus fumigatus): 2.33 µM (≈ 0.998 µg/mL)

OC(CN1CCC(OCc2ccccc2Cl)CC1)(Cn1cncn1)c1ccc(F)cc1F (stereo not drawn)
MIC80 (Trichophyton rubrum): 0.14 µM (≈ 0.0648 µg/mL)
MIC80 (Candida albicans): 0.03 µM (≈ 0.0139 µg/mL)
MIC80 (Kluyveromyces marxianus [1]): 0.54 µM (≈ 0.25 µg/mL)
MIC80 (Candida parapsilosis [2]): 0.03 µM (≈ 0.0139 µg/mL)
MIC80 (Cryptococcus neoformans): 0.03 µM (≈ 0.0139 µg/mL)
MIC80 (Candida tropicalis [3]): 0.14 µM (≈ 0.0648 µg/mL)
MIC80 (Aspergillus fumigatus): 2.16 µM (≈ 1 µg/mL)

OC(CN1CCC(OCc2ccc(Cl)cc2Cl)CC1)(Cn1cncn1)c1ccc(F)cc1F (stereo not drawn)
MIC80 (Trichophyton rubrum): 0.13 µM (≈ 0.0647 µg/mL)
MIC80 (Candida albicans): 0.13 µM (≈ 0.0647 µg/mL)
MIC80 (Kluyveromyces marxianus [1]): 0.5 µM (≈ 0.249 µg/mL)
MIC80 (Candida parapsilosis [2]): 0.03 µM (≈ 0.0149 µg/mL)
MIC80 (Cryptococcus neoformans): 0.03 µM (≈ 0.0149 µg/mL)
MIC80 (Candida tropicalis [3]): 0.13 µM (≈ 0.0647 µg/mL)
MIC80 (Aspergillus fumigatus): 2.01 µM (≈ 1 µg/mL)

OC(CN1CCC(OCc2ccc(Cl)c(Cl)c2)CC1)(Cn1cncn1)c1ccc(F)cc1F (stereo not drawn)
MIC80 (Trichophyton rubrum): 0.03 µM (≈ 0.0149 µg/mL)
MIC80 (Candida albicans): 0.13 µM (≈ 0.0647 µg/mL)
MIC80 (Kluyveromyces marxianus [1]): 0.5 µM (≈ 0.249 µg/mL)
MIC80 (Candida parapsilosis [2]): 0.03 µM (≈ 0.0149 µg/mL)
MIC80 (Cryptococcus neoformans): 0.03 µM (≈ 0.0149 µg/mL)
MIC80 (Candida tropicalis [3]): 0.13 µM (≈ 0.0647 µg/mL)
MIC80 (Aspergillus fumigatus): 2.01 µM (≈ 1 µg/mL)

OC(CN1CCC(OCc2cccc(Cl)c2)CC1)(Cn1cncn1)c1ccc(F)cc1F (stereo not drawn)
MIC80 (Trichophyton rubrum): 0.03 µM (≈ 0.0139 µg/mL)
MIC80 (Candida albicans): 0.14 µM (≈ 0.0648 µg/mL)
MIC80 (Kluyveromyces marxianus [1]): 0.54 µM (≈ 0.25 µg/mL)
MIC80 (Candida parapsilosis [2]): 0.03 µM (≈ 0.0139 µg/mL)
MIC80 (Cryptococcus neoformans): 0.03 µM (≈ 0.0139 µg/mL)
MIC80 (Candida tropicalis [3]): 0.14 µM (≈ 0.0648 µg/mL)
MIC80 (Aspergillus fumigatus): 2.16 µM (≈ 1 µg/mL)

N#Cc1ccc(COC2CCN(CC(O)(Cn3cncn3)c3ccc(F)cc3F)CC2)cc1 (stereo not drawn)
MIC80 (Trichophyton rubrum): 0.03 µM (≈ 0.0136 µg/mL)
MIC80 (Candida albicans): 0.03 µM (≈ 0.0136 µg/mL)
MIC80 (Kluyveromyces marxianus [1]): 0.55 µM (≈ 0.249 µg/mL)
MIC80 (Candida parapsilosis [2]): 0.01 µM (≈ 0.00453 µg/mL)
MIC80 (Cryptococcus neoformans): 0.03 µM (≈ 0.0136 µg/mL)
MIC80 (Candida tropicalis [3]): 0.14 µM (≈ 0.0635 µg/mL)
MIC80 (Aspergillus fumigatus): 0.55 µM (≈ 0.249 µg/mL)

OC(CN1CCC(OCc2cccc(Br)c2)CC1)(Cn1cncn1)c1ccc(F)cc1F (stereo not drawn)
Ratio (Candida parapsilosis [4]): 82
MIC80 (Trichophyton rubrum): 0.12 µM (≈ 0.0609 µg/mL)
Ratio (Candida tropicalis [5]): 82
MIC80 (Candida albicans): 0.01 µM (≈ 0.00507 µg/mL)
Ratio (Kluyveromyces marxianus [6]): 82
MIC80 (Kluyveromyces marxianus [1]): 0.49 µM (≈ 0.249 µg/mL)
MIC80 (Candida parapsilosis [2]): 0.12 µM (≈ 0.0609 µg/mL)
MIC80 (Cryptococcus neoformans): 0.12 µM (≈ 0.0609 µg/mL)
MIC80 (Candida tropicalis [3]): 0.12 µM (≈ 0.0609 µg/mL)
MIC80 (Aspergillus fumigatus): 1.97 µM (≈ 1 µg/mL)

OC(CN1CCC(OCc2ccccc2F)CC1)(Cn1cncn1)c1ccc(F)cc1F (stereo not drawn)
Ratio (Candida parapsilosis [4]): 82
MIC80 (Trichophyton rubrum): 0.14 µM (≈ 0.0625 µg/mL)
Ratio (Candida tropicalis [5]): 82
MIC80 (Candida albicans): 0.01 µM (≈ 0.00446 µg/mL)
Ratio (Kluyveromyces marxianus [6]): 82
MIC80 (Kluyveromyces marxianus [1]): 0.56 µM (≈ 0.25 µg/mL)
MIC80 (Candida parapsilosis [2]): 0.03 µM (≈ 0.0134 µg/mL)
MIC80 (Cryptococcus neoformans): 0.03 µM (≈ 0.0134 µg/mL)
MIC80 (Candida tropicalis [3]): 0.03 µM (≈ 0.0134 µg/mL)
MIC80 (Aspergillus fumigatus): 2.24 µM (≈ 1 µg/mL)

OC(CN1CCC(OCc2ccc(F)cc2)CC1)(Cn1cncn1)c1ccc(F)cc1F (stereo not drawn)
MIC80 (Trichophyton rubrum): 0.03 µM (≈ 0.0134 µg/mL)
MIC80 (Candida albicans): 0.14 µM (≈ 0.0625 µg/mL)
MIC80 (Kluyveromyces marxianus [1]): 0.56 µM (≈ 0.25 µg/mL)
MIC80 (Candida parapsilosis [2]): 0.03 µM (≈ 0.0134 µg/mL)
MIC80 (Cryptococcus neoformans): 0.03 µM (≈ 0.0134 µg/mL)
MIC80 (Candida tropicalis [3]): 0.03 µM (≈ 0.0134 µg/mL)
MIC80 (Aspergillus fumigatus): 2.24 µM (≈ 1 µg/mL)

CN(CCCCOc1ccccc1)CC(O)(Cn1cncn1)c1ccc(F)cc1F (stereo not drawn)
MIC80 (Trichophyton rubrum): 0.6 µM (≈ 0.25 µg/mL)
MIC80 (Candida albicans): 0.04 µM (≈ 0.0167 µg/mL)
MIC80 (Kluyveromyces marxianus [1]): 0.6 µM (≈ 0.25 µg/mL)
MIC80 (Candida parapsilosis [2]): 0.15 µM (≈ 0.0625 µg/mL)
MIC80 (Cryptococcus neoformans): 0.15 µM (≈ 0.0625 µg/mL)
MIC80 (Candida tropicalis [3]): 0.04 µM (≈ 0.0167 µg/mL)
MIC80 (Aspergillus fumigatus): > 154 µM

OC(Cn1cncn1)(Cn1cncn1)c1ccc(F)cc1F [FLUCONAZOLE]
MIC80 (Trichophyton rubrum): 3.26 µM (≈ 0.998 µg/mL)
MIC80 (Candida albicans): 0.82 µM (≈ 0.251 µg/mL)
MIC80 (Kluyveromyces marxianus [1]): 3.26 µM (≈ 0.998 µg/mL)
MIC80 (Candida parapsilosis [2]): 0.82 µM (≈ 0.251 µg/mL)
MIC80 (Cryptococcus neoformans): 0.2 µM (≈ 0.0613 µg/mL)
MIC80 (Candida tropicalis [3]): 3.26 µM (≈ 0.998 µg/mL)
MIC80 (Aspergillus fumigatus): > 209 µM
